“And” between values parts separate entries of the source, which are not always exact repeats. Identical values can stand only once.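 Protocol summary: plate cells (96-well), add compound at 5 concentrations, incubate 48 h, interpolate endpoints linearly. GI50 = concentration required for 50% inhibition of growth. TGI is the concentration that stops growth completely.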
What was measured:
Experiment in all cases: NCI tumour cell line growth inhibition, 48 h
786-0 renal = test system: 786-0 renal
A498 renal = test system: A498 renal
CAKI-1 renal = test system: CAKI-1 renal
DU-145 prostate = test system: DU-145 prostate
EKVX NSCLC = test system: EKVX NSCLC
MCF7 breast = test system: MCF7 breast
RPMI-8226 leukemia = test system: RPMI-8226 leukemia
RXF 393 renal = test system: RXF 393 renal
SNB-75 CNS = test system: SNB-75 CNS
UACC-62 melanoma = test system: UACC-62 melanoma

SMILES | GI50 (786-0 renal) | TGI (786-0 renal) | GI50 (A498 renal) | TGI (A498 renal) | GI50 (CAKI-1 renal) | TGI (CAKI-1 renal) [µM] | GI50 (DU-145 prostate) | TGI (DU-145 prostate) | GI50 (EKVX NSCLC) | TGI (EKVX NSCLC) | GI50 (MCF7 breast) | TGI (MCF7 breast) | GI50 (RPMI-8226 leukemia) | TGI (RPMI-8226 leukemia) | GI50 (RXF 393 renal) | TGI (RXF 393 renal) | GI50 (SNB-75 CNS) | TGI (SNB-75 CNS) | GI50 (UACC-62 melanoma) | TGI (UACC-62 melanoma) [µM]
C#CCNCCN1C(=O)c2ccc3c4c(ccc(c24)C1=O)C(=O)N(CCNCC#C)C3=O | 6.1 µM | 26.5 µM | 7.14 µM | 14.1 µM | 5.05 µM | 15.6 | 5.35 µM | 11.8 µM | 5.93 µM | 13.6 µM | 2.67 µM | 13.4 µM | 10.6 µM | 43.2 µM | 1.79 µM | 9.69 µM | 5.95 µM | 14.5 µM | 1.71 µM | 6.68
O=[N+]([O-])c1ccc(N2CCC(CCCC3CCN(c4ccc([N+](=O)[O-])cc4[N+](=O)[O-])CC3)CC2)c([N+](=O)[O-])c1 | – | 28.7 µM | – | 31.8 µM | – | 41.1 | – | 61.3 µM | – | 34.3 µM | – | 28.3 µM | – | 43.3 µM | – | 35.4 µM | – | 32.8 µM | – | 24.4
COc1ccc(Cl)c(Nc2nc3ccccc3nc2NS(=O)(=O)c2cccc(NC(=O)C(C)(C)N)c2)c1 | 6.19 µM and 5.38 µM | 19.8 µM and > 10 µM | 3.1 µM and 3.23 µM | 13.6 µM and > 10 µM | 6.49 µM | > 10 | 12.1 µM and > 10 µM | 25 µM and > 10 µM | 6.25 µM and > 10 µM | 21 µM and > 10 µM | 2.66 µM and 1.9 µM | 16.8 µM and > 10 µM | 13.4 µM and > 10 µM | 52.8 µM and > 10 µM | 1.89 µM and 2.62 µM | 9.03 µM and > 10 µM | 1.35 µM and 0.481 µM | 10 µM and 6.6 µM | 13 µM | 26.6
N#CSCc1ccc(Cl)c(CSC#N)c1 | 0.301 µM | 17.4 µM | 0.273 µM | 4.04 µM | 0.169 µM | 21.7 | 0.121 µM | 12.7 µM | 20.7 µM | > 80.3 µM | 0.0465 µM | 25.6 µM | 0.186 µM | 28.1 µM | 0.559 µM | 12.3 µM | 0.601 µM | 59.9 µM | 2.53 µM | 23.7
CC1=C(CCC(C)NCc2ccc(OCCCN3CCCCC3)cc2)C(C)(C)CCC1 (stereo not given) | 1.6 µM | 3.1 µM | 1.43 µM | 2.95 µM | 1.82 µM | 3.92 | 1.85 µM | 4.17 µM | 1.61 µM | 3.94 µM | 0.286 µM | 1.17 µM | 2.29 µM | 5.36 µM | 1.6 µM | 3.06 µM | 1.39 µM | 2.72 µM | 1.94 µM | 3.73
Nc1ccccc1C#C/C=C\C#Cc1cccc(O)c1 | 3.89 µM | 15.3 µM | 11 µM | 35.9 µM | 8.08 µM | 36.2 | 16.8 µM | > 57.7 µM | 2.69 µM | 23.4 µM | 0.918 µM | 11.2 µM | 2.51 µM | > 38.2 µM | 0.423 µM | 5.02 µM | 1.36 µM | 13.5 µM | 1.87 µM | 6.6
NC(=O)c1ccc(-c2nc(-c3ccc4c(c3)OCO4)c(-c3ccccn3)[nH]2)cc1 | > 25 µM and 36.4 µM | > 100 µM | > 25 µM and 27.2 µM | > 79.3 µM | > 25 µM and 22.7 µM | > 100 | > 25 µM and 38.7 µM | > 100 µM | > 25 µM and 44.9 µM | > 100 µM | > 25 µM and 31.9 µM | > 83.8 µM | 24.3 µM and 20.7 µM | > 69.6 µM | > 25 µM and 12.6 µM | > 25 µM and 49.4 µM | > 16.5 µM and 21.3 µM | > 90.8 µM | > 25 µM and 35.1 µM | > 100
OCCn1cnc2c(SCc3ccccc3)ncnc21 | – | > 100 µM | – | > 100 µM | – | > 100 | – | > 100 µM | – | > 100 µM | – | > 100 µM | – | > 100 µM | – | > 100 µM | – | > 100 µM | – | > 100
CN(C)c1ccc(C(=NO)c2ccc(N(C)C)cc2)cc1 | 7.49 µM | > 100 µM | 2.57 µM | > 100 µM | 1.95 µM | 7.86 | 4.52 µM | > 100 µM | 3.28 µM | > 100 µM | 1.71 µM | > 100 µM | 2.04 µM | 7.94 µM | 1.46 µM | 5.03 µM | 3.33 µM | 53.2 µM | 2.11 µM | > 100
COC(=N)c1c(N)[n+]([O-])c2ccc(F)cc2[n+]1[O-] | > 100 µM | > 100 µM | 40.4 µM | > 100 µM | > 100 µM | > 100 | > 100 µM | > 100 µM | 99.1 µM | > 100 µM | 76.4 µM | > 100 µM | 81.2 µM | > 100 µM | > 100 µM | > 100 µM | 96.2 µM | > 100 µM | > 100 µM | > 100
Cc1ccc(-c2nc3nc(-c4ccccc4)nc(N4CCNCC4)c3o2)cc1 | 0.585 µM | 1.27 µM | 1.47 µM | 2.97 µM | 1.53 µM | 2.95 | 0.508 µM | 1.73 µM | 1.74 µM | 3.24 µM | 0.401 µM | 1.73 µM | 0.232 µM | 0.571 µM | 1.43 µM | 2.97 µM | 1.58 µM | 3.02 µM | 1.74 µM | 3.27
Cn1cccc1-c1cc(-c2ccc(Br)cc2)[nH]c(=O)c1C#N | > 100 µM | > 100 µM | 54.4 µM | > 100 µM | > 100 µM | > 100 | > 100 µM | > 100 µM | 34.5 µM | > 100 µM | > 100 µM | > 100 µM | > 100 µM | > 100 µM | > 100 µM | > 100 µM | 25.4 µM | > 100 µM | 49.2 µM | > 100
COc1cnc2c(c1)C(=O)c1c-2n(CCCNC2=NCCS2)c(=O)c2cc(Cl)ccc12 | 0.239 µM | 1.72 µM | 1.29 µM | 19.8 µM | 0.0444 µM | 1.6 | 0.0929 µM | 1.83 µM | 1.64 µM | 3.39 µM | 0.0366 µM | 1.32 µM | 1.07 µM | 4.89 µM | 0.783 µM | 2.2 µM | 1.23 µM | 2.51 µM | 0.0953 µM | 1.94
COC(=O)Nc1nc2ccc(Oc3cccc(NC(=O)Nc4cc(C(F)(F)F)ccc4F)c3)cc2[nH]1 | > 25 µM | > 25 µM | 9.46 µM | > 25 µM | 14.3 µM | > 25 | > 25 µM | > 25 µM | > 19.5 µM | > 25 µM | 4.45 µM | > 7.9 µM | > 20.8 µM | > 25 µM | 10.4 µM | > 25 µM | 8.53 µM | > 25 µM | 8.11 µM | > 25
CC(=O)[O][Sn]([CH2]c1ccccc1)([CH2]c1ccccc1)[CH2]c1ccccc1 | > 7.05 µM | > 10 µM | > 4.95 µM | 9.94 µM | > 10 µM | > 10 | > 10 µM | > 10 µM | > 5.53 µM | > 6.88 µM | > 10 µM | > 10 µM | 3.65 µM | > 4.64 µM | 3.98 µM | > 4.64 µM | > 4.28 µM | > 5.68 µM | > 10 µM | > 10
Cc1cnc(CNC(=O)c2c(=O)c3ccc(N4CCCN(C)CC4)nc3n3c2sc2ccccc23)cn1 | 6.17 µM | 22.7 µM | 12.2 µM | 25.2 µM | 2.49 µM | 18 | 1.03 µM | 6.29 µM | 9.14 µM | 23.2 µM | 0.804 µM | 16.4 µM | 1.54 µM | 6.1 µM | 3.39 µM | 18.9 µM | 9.55 µM | 25.8 µM | 7.69 µM | 28.1
C=C1c2ccoc2C[C@H]2[C@H]1CC[C@@]1(O)[C@@](C)(C(=O)OC)CCC[C@]21C | 40.1 µM | > 100 µM | 21.9 µM | 40.8 µM | 50.2 µM | > 100 | 38.4 µM | > 100 µM | 37 µM | > 100 µM | 9.51 µM | > 100 µM | 21.5 µM | 54 µM | 48 µM | > 100 µM | > 100 µM | > 100 µM | 13.7 µM | 30.7
Cc1ccc(C(=O)NC2CCC2)cc1-c1ccc(C(=O)NCC2CC2)cc1 | > 25 µM | > 25 µM | 25 µM | > 25 µM | > 25 µM | > 25 | > 25 µM | > 25 µM | > 25 µM | > 25 µM | > 25 µM | > 25 µM | > 25 µM | > 25 µM | > 25 µM | > 25 µM | > 25 µM | > 25 µM | > 25 µM | > 25
O=C1NOC(c2ccc(O)cc2)(c2ccc(O)cc2)c2ccccc21 | > 100 µM | > 100 µM | > 100 µM | > 100 µM | > 100 µM | > 100 | > 100 µM | > 100 µM | > 100 µM | > 100 µM | > 100 µM | > 100 µM | > 100 µM | > 100 µM | > 100 µM | > 100 µM | > 100 µM | > 100 µM | > 100 µM | > 100
COc1ccc(/C=C(\C(=O)NCc2cccnc2)S(=O)(=O)c2ccccc2)cc1OC | 2.86 µM | 8.92 µM | 2.78 µM | 8 µM | 3.29 µM | 11.7 | 3.06 µM | 12.4 µM | 3.13 µM | 12.2 µM | 2.41 µM | 12.7 µM | 2.43 µM | 6.78 µM | 2.08 µM | 4.26 µM | 2.08 µM | 7.84 µM | 1.76 µM | 3.74
O=[N+]([O-])c1ccc(N=Nc2ccc(O)c3ccccc23)cc1 | 8.59 µM | > 100 µM | 3.32 µM | 86.8 µM | 4.17 µM | > 100 | 6.66 µM | > 100 µM | 7.44 µM | > 100 µM | 2.42 µM | > 100 µM | 1.59 µM | 6.55 µM | 4.87 µM | 39.4 µM | 2.45 µM | > 100 µM | 4.76 µM | 32.9
CN(C)CC1CCC2=C(C1=O)C(c1ccc(Cl)c(Cl)c1)C1=C(CCC(CN(C)C)C1=O)O2 (stereo not given) | 1.58 µM | 2.98 µM | 14.3 µM | 27.4 µM | 1.58 µM | 3.03 | 2.91 µM | 9.09 µM | 18.2 µM | 34.1 µM | 1.26 µM | 3.27 µM | 0.389 µM | 4.36 µM | 9.18 µM | 22.5 µM | 12.4 µM | 25.8 µM | 15.3 µM | 28.7

Reference: PubChem BioAssay (NCI)
